Reference: ChEMBL document CHEMBL5036315, “Synthesis, Structure-Activity Relationships, and In Vivo Evaluation of Novel Tetrahydropyran-Based Thiodisaccharide Mimics as Galectin-3 Inhibitors” (J Med Chem, 2021)
≈ marks a conversion by molar mass, not a printed value.

Columns and labels:
[1] = Aqueous solubility of the compound at pH 1; type: physicochemical; conditions: aqueous solution
[2] = Cmax in C57BL/6 mouse at 30 mg/kg, po measured upto 24 hrs; type: ADME, organism-based; parameters: route oral, dose 30 mg/kg, time <=24; conditions: in vivo
[3] = Metabolic stability in mouse liver microsomes assessed as compound remaining at 0.5 uM incubated for10 mins in presence of NADPH by LC-MS/MS analysis; type: ADME, Microsome; conditions: read-out: Stability
[4] = Oral bioavailability in C57BL/6 mouse at 30 mg/kg measured upto 24 hrs; type: ADME, organism-based; conditions: in vivo
[5] = Metabolic stability in human liver microsomes assessed as compound remaining at 0.5 uM incubated for10 mins in presence of NADPH by LC-MS/MS analysis; type: ADME, Microsome; conditions: read-out: Stability
[6] = Volume of distribution at steady state in C57BL/6 mouse at 2 mg/kg, iv measured upto 24 hrs; type: ADME, organism-based; conditions: in vivo
[7] = AUC in C57BL/6 mouse at 30 mg/kg, po measured upto 24 hrs; type: ADME, organism-based; parameters: route oral, dose 30 mg/kg, time <=24; conditions: in vivo
[8] = Clearance in C57BL/6 mouse at 2 mg/kg, iv measured upto 24 hrs; type: ADME, organism-based; conditions: in vivo
[9] = Half life in C57BL/6 mouse at 2 mg/kg, iv measured upto 24 hrs; type: ADME, organism-based; conditions: in vivo
[10] = Cmax in C57BL/6 mouse at 30 mg/kg, sc measured upto 24 hrs; type: ADME, organism-based; parameters: route subcutaneous, dose 30 mg/kg, time <=24; conditions: in vivo
[11] = Bioavailability in C57BL/6 mouse at 30 mg/kg, sc measured upto 24 hrs; type: ADME, organism-based; conditions: in vivo
[12] = AUC in C57BL/6 mouse at 30 mg/kg, sc measured upto 24 hrs; type: ADME, organism-based; parameters: route subcutaneous, dose 30 mg/kg, time <=24; conditions: in vivo
[13] = Aqueous solubility of the compound at pH 7.4; type: physicochemical; conditions: aqueous solution

| SMILES | solubility [1] [µg/mL] | Cmax [2] [nM] | remaining at 10 min, 0.5 µM [3] [%] | bioavailability [4] [%] | remaining at 10 min, 0.5 µM [5] [%] | Vss [6] [L/kg] | AUC at 24 h [7] [µM·h] | clearance [8] [mL/min/kg] | half-life [9] [min] | Cmax [10] [µM] | F ([11]; mouse, 30 mg/kg, 24 h) [%] | AUC ([12]; mouse, 24 h) [µM·h] | solubility [13] [µg/mL] | bioavailability ([11]; C57BL/6, mouse) [%] | AUC at 24 h ([12]; C57BL/6, mouse) [µM·h] |
| --- | --- | --- | --- | --- | --- | --- | --- | --- | --- | --- | --- | --- | --- | --- | --- |
| COc1ncc(-c2cn([C@H]3COC[C@@H](S[C@@H]4O[C@H](CO)[C@H](O)[C@H](n5cc(-c6cc(F)c(F)c(F)c6)nn5)[C@H]4OC)[C@@H]3O)nn2)cn1 | < 1 | – | – | – | – | – | – | – | – | – | – | – | – | – | – |
| CO[C@@H]1[C@@H](n2cc(-c3cc(F)c(F)c(F)c3)nn2)[C@@H](O)[C@@H](CO)O[C@H]1S[C@@H]1COC[C@H](n2cc(-c3cncnc3)nn2)[C@H]1O | 6 (≈ 9.42 µM) | – | 89 | – | 45 | 2.4 | – | – | 84 | 5.9 | 100 | 49 | 3 (≈ 4.71 µM) | – | – |
| CO[C@@H]1[C@@H](n2cc(-c3cc(F)c(F)c(F)c3)nn2)[C@@H](O)[C@@H](CO)O[C@H]1S[C@@H]1COC[C@H](n2cc(-c3nccs3)nn2)[C@H]1O | < 1 | – | – | – | – | – | – | – | – | – | – | – | – | – | – |
| COc1cnc(-c2cn([C@H]3COC[C@@H](S[C@@H]4O[C@H](CO)[C@H](O)[C@H](n5cc(-c6cc(F)c(F)c(F)c6)nn5)[C@H]4OC)[C@@H]3O)nn2)nc1 | < 1 | – | – | – | – | – | – | – | – | – | – | – | < 1 | – | – |

More lines, now with the values ahead:

| solubility [1] [µg/mL] | Cmax [2] [nM] | remaining at 10 min, 0.5 µM [3] [%] | bioavailability [4] [%] | remaining at 10 min, 0.5 µM [5] [%] | Vss [6] [L/kg] | AUC at 24 h [7] [µM·h] | clearance [8] [mL/min/kg] | half-life [9] [min] | Cmax [10] [µM] | F ([11]; mouse, 30 mg/kg, 24 h) [%] | AUC ([12]; mouse, 24 h) [µM·h] | solubility [13] [µg/mL] | bioavailability ([11]; C57BL/6, mouse) [%] | AUC at 24 h ([12]; C57BL/6, mouse) [µM·h] | SMILES |
| --- | --- | --- | --- | --- | --- | --- | --- | --- | --- | --- | --- | --- | --- | --- | --- |
| – | 200 | 72 | 2 | 78 | 3.6 | 0.3 | 59 | 114 | – | – | – | – | – | – | CO[C@@H]1[C@@H](n2cc(-c3cc(F)c(F)c(F)c3)nn2)[C@@H](O)[C@@H](CO)O[C@H]1S[C@@H]1COC[C@H](n2cc(-c3cccc(F)c3)nn2)[C@H]1O |
| – | 10 | 92 | 0.3 | 98 | 1.6 | 0.04 | 69 | 72 | – | – | – | – | – | – | CO[C@@H]1[C@@H](n2cc(-c3cc(F)c(F)c(F)c3)nn2)[C@@H](O)[C@@H](CO)O[C@H]1S[C@@H]1COC[C@H](n2cc(-c3cccc(O)c3)nn2)[C@H]1O |
| – | 300 | – | 1 | – | 0.7 | 0.3 | 30 | 96 | 10.3 | – | – | – | 66 | 17 | OC[C@H]1O[C@@H](S[C@@H]2O[C@H](CO)[C@H](O)[C@H](n3cc(-c4cccc(F)c4)nn3)[C@H]2O)[C@H](O)[C@@H](n2cc(-c3cccc(F)c3)nn2)[C@H]1O [OLITIGALTIN] |
